The numbers were not newly measured in patent US20070196517A1, “Modified Saponin Molluscicide” (priority 2005, published 2007), which cites them from elsewhere.

The subject of one data set is golden apple snails. As to conditions: rice fields (Bayer, 2005).
The test system of a further data set is tropical fish (carp). As to conditions: carp (WHO 2002).

Structures can show the parent of a compound that is named as a salt.

In the case of `O=C(Nc1ccc([N+](=O)[O-])cc1Cl)c1cc(Cl)ccc1O` [Niclosamide, 2-aminoethanol salt of 2′,5-dichloro-4′,nitro-salicylanilide], the “effective doses for control of golden apple snail” value with golden apple snails was 0.5 to 1.0 mg/L. For the same compound, in the data set on tropical fish (carp), the “LC50 (kills 50% of tropical fish)” value was 0.14 µg/mL.
